Assay results reported in patent US8952025B2, “Multifunctional radical quenchers and their uses” (Arizona Board of Regents, A Body Corporate of the State of …, priority 2010, dated 2015).

Key:
cultured FRDA cells = experiment: Cytoprotection of cultured FRDA cells depleted of glutathione; type: cell-based; details: pretreated then depleted of glutathione, read-out: Viable Cells (%)
Text: The cells were pretreated with the compounds and then depleted of glutathione. The cell viability is expressed as percentage of total number of cells.

[1] = system: NADH oxidase, bovine heart mitochondrial complex (I, III, IV); experiment: NADH oxidase inhibition assay, submitochondrial particles; type: biochemical; details: for NADH oxidase activity (%): percentage of control; for IC50: beef heart SMP
Procedure: Beef heart mitochondria were obtained by a large-scale procedure. Inverted submitochondrial particles (SMP) were prepared by the method of Matsuno-Yagi and Hatefi (J. Biol. Chem. 260 (1985), p. 14424), and stored in a buffer containing 0.25 M sucrose and 10 mM Tris-HCl (pH 7.4) at −80° C. Inhibitory effects of compounds on bovine heart mitochondrial complex (I, III, IV) were evaluated. Maximal dimethyl sulfoxide concentration never exceeded 2% and had no influence on the control enzymatic activity. Beef heart SMP were diluted to 0.5 mg/mL. The enzymatic activities were assayed at 30° C. and monitored spectrophotometrically with a Beckman Coulter DU-530 (340 nm, c=6.22 mM^−1 cm^−1). NADH oxidase activity was determined in a reaction medium (2.5 mL) containing 50 mM Hepes, pH 7.5, containing 5 mM MgCl2. The final mitochondrial protein concentration was 30 μg. After the pre-equilibration of SMP with inhibitor for 5 min, the initial rates were calculated from the linear portion of the traces.
The activity is expressed as percentage of control.

CEM cells = experiment: Reactive oxygen species (ROS) assay, DCFH-DA, DEM-treated cells; type: cell-based, human; details: compound 1 μM, 5 mM DEM
Text: Cellular ROS production can be monitored using 2′,7′-dichlorodihydrofluorescein diacetate (DCFH-DA) (LeBel et al. (1992) Chem. Res. Toxicol. 5, 227-231) (Molecular Probes, Eugene, Oreg., USA), a membrane permeable and oxidant-sensitive fluorescent dye. DCFH-DA is a non-fluorescent derivative of fluorescein that emits fluorescence after being oxidized by hydrogen peroxide and other ROS. The emitted fluorescence is directly proportional to the concentration of hydrogen peroxide. DCFH-DA is nonionic and nonpolar and is easily taken up by cells. Once inside the cell, DCFH-DA is hydrolyzed by cellular esterases to non-fluorescent DCFH which traps the dye in the cell. In the presence of ROS including hydrogen peroxide, DCFH is oxidized to the highly fluorescent compound dichlorofluorescein (DCF). The intracellular DCF fluorescence is used as an index of cellular ROS production.
Cellular oxidative stress was induced by pharmacological depletion of glutathione (GSH) using the chemical diethylmaleate (DEM). ROS production was assessed by monitoring DCF fluorescence. Leukemic CEM cells (ATCC®, catalogue number CRL-2264) were cultured in RPMI (GIBCO, Grand island, N.Y., USA) with 10% FCS, 2 mM glutamine (HyClone, South Logan, Utah, USA) and 1% penicillin-streptomycin mix antibiotics (Cellgro, Manassan, Va., USA) supplements. Cells were maintained in the log phase at a concentration of between 1×10^5 and 1×10^6 cells/mL. CEM cells (1×10^6 cell/mL) were plated (1 mL) in twelve well plate and treated with the invention compounds (final concentration 1 and 5 μM), and incubated for two hours at 37° C., 5% CO2. The compounds tested were prepared by first making stock solutions (2.5 mM) in dimethylsulfoxide (DMSO). Cells were treated with 5 mM DEM for 30 minutes and collected by centrifugation at 300×g for 3 min and then washed twice with Hanks' Balanced Salt Solution (HSSB) buffer (Sigma, St. Louis, Mo. USA). Cells were resuspended in HSSB buffer+10 mM glucose and incubated at 37° C. in the dark for 20 min with 10 μM DCFH-DA. Cells were collected by centrifugation at 300×g for 3 min and then washed twice with HSSB buffer. The samples were analyzed immediately by flow cytometry (Becton-Dickinson FACS Caliber), (Cell Quest software, BD Biosciences) using 488 nm excitation laser and FL1-H channel 538 nm emission filter. In each analysis, 10,000 events were recorded after cell debris were electronically gated out. Results obtained were verified by repeating experiments N=3 independent experiments. Authentic hydrogen peroxide was used as a positive control.

NADH oxidase activity (%) ([1]; 1 μM)	NADH oxidase activity (%) ([1]; 2.5 μM)	NADH oxidase activity (%) ([1]; 5 μM)	NADH oxidase activity (%) ([1]; 10 μM)	Structure (SMILES)	further results
50%	50%	–	15%	Cc1nc2c(c(CC[C@](C)(O)CCC[C@H](C)CCC[C@H](C)CCCC(C)C)c1O)CCN2C [drawing 136]	–
90%	58%	38%	20%	Cc1cc(N(C)C)nc(CCCCCCCCCCO)c1O [drawing 137]	–
62.5%	40%	50%	25%	COc1nc(N(C)C)nc(CCCCCCCCCCO)c1O [drawing 138]	–
62%	62%	62%	62%	CCCCCCCCCCCCCCCCc1nc(N(C)C)nc(C)c1O [drawing 139]	–
90%	70%	70%	70%	CCCCCCCCCCCCCCCCc1nc(N(C)C)nc(OC)c1O [drawing 140]	–
38%	–	38%	10%	CCCCCCCCCCc1nc(N(C)C)nc(OC)c1O [drawing 141]	–

More lines, now with the values behind:

Structure (SMILES)	NADH oxidase activity (%) ([1]; 1 μM)	NADH oxidase activity (%) ([1]; 2.5 μM)	NADH oxidase activity (%) ([1]; 5 μM)	NADH oxidase activity (%) ([1]; 10 μM)	further results
CCCCCCCCCCc1nc(N(C)C)nc(C)c1O [drawing 128]	–	–	–	–	viability at 0.1 µM (cultured FRDA cells): 54.5 ± 3.3%; viability at 0.5 µM (cultured FRDA cells): 84 ± 3.6%; viability at 2.5 µM (cultured FRDA cells): 76.3 ± 5%
CCCCCCCCCCCCCCCCc1nc(N(C)C)nc(C)c1O [drawing 129]	–	–	–	–	viability at 0.1 µM (cultured FRDA cells): 61.3 ± 2.9%; viability at 0.5 µM (cultured FRDA cells): 84.4 ± 3.4%; viability at 2.5 µM (cultured FRDA cells): 88 ± 1%
CCCCCCCCCCc1nc(N(C)C)nc(OC)c1O [drawing 130]	–	–	–	–	viability at 0.1 µM (cultured FRDA cells): 40.3 ± 1.5%; viability at 0.5 µM (cultured FRDA cells): 83.7 ± 1.5%; viability at 2.5 µM (cultured FRDA cells): 82.7 ± 2.5%
CCCCCCCCCCCCCCCCc1nc(N(C)C)nc(OC)c1O [drawing 131]	–	–	–	–	viability at 0.1 µM (cultured FRDA cells): 43.7 ± 3.1%; viability at 0.5 µM (cultured FRDA cells): 66.3 ± 1.5%; viability at 2.5 µM (cultured FRDA cells): 80.5 ± 5%
CCCCCc1nc(N(C)C)nc(C)c1O [drawing 132]	85%	–	–	–	–
CCCCCCCCCCc1nc(N(C)C)nc(C)c1O [drawing 133]	40%	–	–	–	IC50 [1]: 829 nM
Cc1nc(N(C)C)nc(CCCCCCCCCCO)c1O [drawing 134]	50%	42%	22%	15%	IC50 [1]: 2230 nM
COc1c(O)c(C)c(CCCCCCCCCCO)c(O)c1OC [idebenol, reference compound]	–	–	–	–	protection against ROS production (DCF fluorescence) (CEM cells): less effective at this concentration
